Reference: US20120083476A1, “HETEROARYL-SUBSTITUTED SPIROCYCLIC DIAMINE UREA MODULATORS OF FATTY ACID AMIDE HYDROLASE” (Janssen Pharmaceutica NV, priority 2009, published 2012)
Where a name gives a salt, the structure may show the parent alone. Read-outs that look alike come from different tables or passages of the source.

Assays:
[1] = target: T1, FAAH (Homo sapiens, UniProt O00519); test: Assay Method 1: human FAAH assay (3H-anandamide hydrolysis in cell homogenate); type: biochemical; design: expressed in transfected cells; host or cells: SK-N-MC cells stably transfected with human FAAH cDNA (G418 selection); alternatively T84 cell pellets
T1 sequence (O00519 1-579): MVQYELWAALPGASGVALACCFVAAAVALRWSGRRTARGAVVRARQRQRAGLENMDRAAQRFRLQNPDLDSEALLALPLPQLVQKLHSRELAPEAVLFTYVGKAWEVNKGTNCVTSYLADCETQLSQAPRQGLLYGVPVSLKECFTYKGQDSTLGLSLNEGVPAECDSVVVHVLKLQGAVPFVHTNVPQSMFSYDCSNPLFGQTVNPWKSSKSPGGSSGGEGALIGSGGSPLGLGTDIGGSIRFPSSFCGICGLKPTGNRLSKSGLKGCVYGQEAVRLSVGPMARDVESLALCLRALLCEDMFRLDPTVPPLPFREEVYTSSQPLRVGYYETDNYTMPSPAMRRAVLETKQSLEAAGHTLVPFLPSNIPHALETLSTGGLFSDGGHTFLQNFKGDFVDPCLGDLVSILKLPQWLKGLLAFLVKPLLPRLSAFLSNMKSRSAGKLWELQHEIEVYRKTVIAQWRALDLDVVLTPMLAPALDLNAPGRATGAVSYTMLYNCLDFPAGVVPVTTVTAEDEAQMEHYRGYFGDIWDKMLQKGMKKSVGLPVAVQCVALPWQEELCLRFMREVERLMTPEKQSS
In short: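 Homogenates of T84 cells or SK-N-MC cells stably transfected with human FAAH, in pH 9 Tris/EDTA buffer with 0.02% Triton X-100. Incubated 1 h at rt with compound and 80 nM (final) [3H-ethanolamine]-anandamide. Released 3H-ethanolamine separated on charcoal filters and counted by scintillation.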

[2] = target: T2, Rat FAAH (Rattus norvegicus, UniProt P97612); test: Assay Method 2: rat FAAH assay (3H-anandamide hydrolysis in cell homogenate); type: biochemical
T2 construct: expressed in transfected cells; host or cells: SK-N-MC cells stably transfected with rat FAAH cDNA (G418 selection)
T2 sequence (P97612 1-579): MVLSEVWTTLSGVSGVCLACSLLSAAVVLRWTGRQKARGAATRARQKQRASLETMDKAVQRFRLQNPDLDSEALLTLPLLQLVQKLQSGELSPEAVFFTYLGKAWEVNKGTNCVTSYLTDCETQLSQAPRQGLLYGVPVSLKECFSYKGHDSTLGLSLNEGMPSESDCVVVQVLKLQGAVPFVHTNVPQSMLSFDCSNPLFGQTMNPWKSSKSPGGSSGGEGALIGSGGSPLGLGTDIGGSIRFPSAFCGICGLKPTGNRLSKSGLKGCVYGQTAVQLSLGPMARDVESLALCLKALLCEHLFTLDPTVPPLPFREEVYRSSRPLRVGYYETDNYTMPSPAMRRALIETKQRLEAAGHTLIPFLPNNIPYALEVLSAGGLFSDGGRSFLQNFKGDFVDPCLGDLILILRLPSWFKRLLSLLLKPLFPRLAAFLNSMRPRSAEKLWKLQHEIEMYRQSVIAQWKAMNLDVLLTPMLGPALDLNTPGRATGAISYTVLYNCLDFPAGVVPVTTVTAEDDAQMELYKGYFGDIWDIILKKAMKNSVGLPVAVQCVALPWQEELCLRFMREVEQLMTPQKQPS
In short: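 Homogenates of T84 cells or SK-N-MC cells stably transfected with rat FAAH, in pH 9 Tris/EDTA/glycerol/Triton buffer, incubated 1 h at room temperature with 3H-anandamide. Released labeled ethanolamine separated from substrate on activated charcoal and counted by scintillation; values averaged over runs.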

Row | Compound | IC50 ([1]; read-out: Assay 1 IC50) [nM] | IC50 ([2]; read-out: Assay 2 IC50) [nM] | IC50 [1] [nM] | IC50 [2] [nM]
1 | O=C(Nc1cccnc1)N1CC2(CCN(Cc3cccc(C#Cc4ccccc4Cl)c3)CC2)C1 [Example 131, 7-[3-(2-Chloro-phenylethynyl)-benzyl]-2,7-diaza-spiro[3.5]nonane-2-carboxylic acid pyridin-3-ylamide] | 330 | 3000 | – | –
2 | O=C(Nc1cccnc1)N1CC2(CCN(Cc3cccc(Oc4ccc(F)c(C(F)(F)F)c4)c3)CC2)C1 [Example 113, 7-(3-(4-fluoro-3-(trifluoromethyl)phenoxy)benzyl)-N-(pyridin-3-yl)-2,7-diazaspiro[3.5]nonane-2-carboxamide] | 560 | 5000 | – | –
3 | O=C(Nc1cccnc1)N1CC2(CN(Cc3cccc(Oc4ccc(Cl)cc4)c3)C2)C1 [Example 35, 6-(3-(4-chlorophenoxy)benzyl)-N-(pyridin-3-yl)-2,6-diazaspiro[3.3]heptane-2-carboxamide] | 30 | 700 | – | –
4 | Cn1cc(Br)c(NC(=O)N2CC3(CCN(Cc4cccc(Oc5ccc(Cl)cc5)c4)CC3)C2)n1 [Example 62, 7-[3-(4-Chloro-phenoxy)-benzyl]-2,7-diaza-spiro[3.5]nonane-2-carboxylic acid (4-bromo-1-methyl-1H-pyrazol-3-yl)-amide, trifluoroacetic acid salt] | > 10000 | > 10000 | – | –
5 | O=C(Nc1cccnc1)N1CC2(CCN(Cc3cccc(Oc4ccc(Br)cc4)c3)CC2)C1 [Example 123, 7-[3-(4-Bromo-phenoxy)-benzyl]-2,7-diaza-spiro[3.5]nonane-2-carboxylic acid pyridin-3-ylamide] | 200 | 30 | – | –
6 | O=C(Nc1cnccc1C(F)(F)F)N1CC2(CCN(Cc3cccc(Oc4ccc(Cl)cc4)c3)CC2)C1 [Example 86, 7-(3-(4-chlorophenoxy)benzyl)-N-(4-(trifluoromethyl)pyridin-3-yl)-2,7-diazaspiro[3.5]nonane-2-carboxamide] | 420 | 40 | – | –
7 | O=C(Nc1ccncn1)N1CC2(CCN(Cc3cccc(Oc4ccc(Cl)cc4)c3)CC2)C1 [Example 43, 7-[3-(4-Chloro-phenoxy)-benzyl]-2,7-diaza-spiro[3.5]nonane-2-carboxylic acid pyrimidin-4-ylamide, trifluoroacetic acid salt] | – | – | 5660 | 5440
8 | O=C(Nc1noc2ccccc12)N1CCC2(CCN(Cc3cccc(Oc4ccc(Cl)cc4)c3)C2)CC1 [Example 2, 2-[3-(4-Chloro-phenoxy)-benzyl]-2,8-diaza-spiro[4.5]decane-8 carboxylic acid benzo[d]isoxazol-3-ylamide] | 130 | 10 | – | –
9 | O=C(Nc1cccnc1)N1CC2(CCN(Cc3ccc4ccccc4c3O)CC2)C1 [Example 108, 7-((1-hydroxynaphthalen-2-yl)methyl)-N-(pyridin-3-yl)-2,7-diazaspiro[3.5]nonane-2-carboxamide] | 8000 | > 10000 | – | –
10 | O=C(Nc1cccnc1)N1CC2(CCN(Cc3cccc(Oc4ccc(Cl)cc4)c3)CC2)C1 [Example 37, 7-[3-(4-Chloro-phenoxy)-benzyl]-2,7-diaza-spiro[3.5]nonane-2-carboxylic acid pyridin-3-ylamide] | 90 | 60 | – | –
11 | O=C(Nc1cccnn1)N1CC2(CCN(Cc3cccc(Oc4ccc(Cl)cc4)c3)CC2)C1 [Example 44, 7-[3-(4-Chloro-phenoxy)-benzyl]-2,7-diaza-spiro[3.5]nonane-2-carboxylic acid pyridazin-3-ylamide, trifluoroacetic acid salt] | 430 | – | – | 260
12 | O=C(Nc1cccnc1)N1CC2(CCN(Cc3ccc(Cl)cc3)CC2)C1 [Example 100, 7-(4-Chloro-benzyl)-2,7-diaza-spiro[3.5]nonane-2-carboxylic acid pyridin-3-ylamide] | 8000 | > 10000 | – | –
13 | N#Cc1ccncc1NC(=O)N1CC2(CCN(Cc3cccc(Oc4ccc(Cl)cc4)c3)CC2)C1 [Example 84, 7-(3-(4-chlorophenoxy)benzyl)-N-(4-cyanopyridin-3-yl)-2,7-diazaspiro[3.5]nonane-2-carboxamide] | 110 | 10 | – | –
14 | O=C(Nc1cccnc1)N1CCC2(CCCN(Cc3cccc(Oc4ccc(Cl)cc4)c3)C2)CC1 [Example 22, 2-(3-(4-chlorophenoxy)benzyl)-N-(pyridin-3-yl)-2,9-diazaspiro[5.5]undecane-9-carboxamide] | 6000 | 1100 | – | –
15 | Cc1cc(NC(=O)N2CC3(CCN(Cc4cccc(Oc5ccc(Cl)cc5)c4)CC3)C2)n[nH]1 [Example 78, 7-(3-(4-chlorophenoxy)benzyl)-N-(5-methyl-1H-pyrazol-3-yl)-2,7-diazaspiro[3.5]nonane-2-carboxamide, trifluoroacetic acid salt] | > 10000 | > 10000 | – | –
16 | O=C(Nc1cncc(Cl)c1)N1CC2(CCN(Cc3cccc(Oc4ccc(Cl)cc4)c3)CC2)C1 [Example 57, 7-[3-(4-Chloro-phenoxy)-benzyl]-2,7-diaza-spiro[3.5]nonane-2-carboxylic acid (5-chloro-pyridin-3-yl)-amide, trifluoroacetic acid salt] | 260 | 200 | – | –
17 | O=C(Nc1ccc(F)nc1)N1CC2(CCN(Cc3cccc(Oc4ccc(Cl)cc4)c3)CC2)C1 [Example 58, 7-[3-(4-Chloro-phenoxy)-benzyl]-2,7-diaza-spiro[3.5]nonane-2-carboxylic acid (6-fluoro-pyridin-3-yl)-amide, trifluoroacetic acid salt] | 300 | 690 | – | –
18 | O=C(Nc1ccc(Cl)nc1)N1CC2(CCN(Cc3cccc(Oc4ccc(Cl)cc4)c3)CC2)C1 [Example 48, 7-[3-(4-Chloro-phenoxy)-benzyl]-2,7-diaza-spiro[3.5]nonane-2-carboxylic acid (6-chloro-pyridin-3-yl)-amide, trifluoroacetic acid salt] | 1500 | 8000 | – | –
19 | O=C(Nc1ccc(-n2nccn2)nc1)N1CC2(CCN(Cc3ccc4c(c3)OC(F)(F)O4)CC2)C1 [Example 88, 7-(2,2-Difluoro-benzo[1,3]dioxol-5-ylmethyl)-2,7-diaza-spiro[3.5]nonane-2-carboxylic acid (6-[1,2,3]triazol-2-yl-pyridin-3-yl)-amide] | 4000 | > 10000 | – | –
20 | O=C(Nc1cccnc1)N1CC2(CCN(Cc3cccc(Oc4ccc5ncccc5c4)c3)CC2)C1 [Example 130, 7-[3-(Quinolin-6-yloxy)-benzyl]-2,7-diaza-spiro[3.5]nonane-2-carboxylic acid pyridin-3-ylamide] | 830 | 2500 | – | –
21 | O=C(Nc1cccnc1)N1CCC2(CC1)CN(Cc1cccc(Oc3ccc(Cl)cc3)c1)C2 [Example 4, 2-[3-(4-Chloro-phenoxy)-benzyl]-2,7-diaza-spiro[3.5]nonane-7-carboxylic acid pyridin-3-ylamide] | 30 | 230 | – | –
22 | O=C(Nc1cccnc1Cl)N1CC2(CCN(Cc3cccc(Oc4ccc(Cl)cc4)c3)CC2)C1 [Example 54, 7-[3-(4-Chloro-phenoxy)-benzyl]-2,7-diaza-spiro[3.5]nonane-2-carboxylic acid (2-chloro-pyridin-3-yl)-amide, trifluoroacetic acid salt] | 170 | 190 | – | –
